Source: patent US9630943B2, “Tetrahydronaphthyl(thio) carboxamides” (BAYER CROPSCIENCE AG, priority 2012, dated 2017)

Tests used:
Septoria tritici = assay: In vivo preventive test on Septoria tritici (leaf spot on wheat); conditions: wheat plants, preventive spray, dose 100 ppm, grading 24 days after contamination
Method: Wheat plants (“Scipion” variety), sown in starter cups on a 50/50 peat soil-pozzolana substrate and grown at 22° C., are treated at the 1-leaf stage (10 cm height) by spraying with the active ingredient prepared as described above. Plants, used as controls, are treated with the mixture of acetone/tween/DMSO/water not containing the active material. After 24 hours, the plants are contaminated by spraying the leaves with an aqueous suspension of cryopreserved Septoria tritici spores (500 000 spores per ml). […] Grading (% of efficacy) is carried out 24 days after the contamination, in comparison with the control plants.

Uromyces appendiculatus = assay: In vivo preventive test on Uromyces appendiculatus (bean rust); conditions: bean plants, preventive spray, dose 100 ppm, grading 11 days after contamination
Method: Plants, used as controls, are treated with the mixture of acetone/tween/DMSO/water not containing the active material. After 24 hours, the plants are contaminated by spraying the leaves with an aqueous suspension of Uromyces appendiculatus spores (150 000 spores per ml). […] Grading (% of efficacy) is carried out 11 days after the contamination, in comparison with the control plants.

[1] = Measurement of logP values by HPLC on reversed phase columns (EEC directive 79/831 Annex V.A8); format: physicochemical; conditions: method [a]
Botrytis cinerea = assay: In vivo preventive test on Botrytis cinerea (grey mould); conditions: gherkin plants, preventive spray, dose 100 ppm, grading 4 to 5 days after contamination
Method: Gherkin plants (“Vert petit de Paris” variety), sown in starter cups on a 50/50 peat soil-pozzolana substrate and grown at 24° C., are treated at the Z11 cotyledon stage by spraying with the active ingredient prepared as described above. Plants, used as controls, are treated with the mixture of acetone/tween/DMSO/water not containing the active material. After 24 hours, the plants are contaminated by spraying the cotyledons with an aqueous suspension of cryopreserved Botrytis cinerea spores (50 000 spores per ml). The spores are suspended in a nutrient solution composed of 10 g/L of PDB, 50 g/L of D-Fructose, 2 g/L of NH4NO3 and 1 g/L of KH2PO4. […] Grading (% of efficacy) is carried out 4 to 5 days after the contamination, in comparison with the control plants.

Pyrenophora teres = assay: In vivo preventive test on Pyrenophora teres (net blotch on barley); conditions: barley plants, preventive spray, dose 100 ppm, grading 14 days after contamination
Method: Barley plants (“Plaisant” variety), sown in starter cups on a 50/50 peat soil-pozzolana substrate and grown at 22° C., are treated at the 1-leaf stage (10 cm height) by spraying with the active ingredient prepared as described above. Plants, used as controls, are treated with the mixture of acetone/tween/DMSO/water not containing the active material. After 24 hours, the plants are contaminated by spraying the leaves with an aqueous suspension of Pyrenophorateres spores (12 000 spores per ml). The spores are collected from a 12-day-old culture. […] Grading (% of efficacy) is carried out 14 days after the contamination, in comparison with the control plants.

Phakopsora pachyrhizi = assay: In vivo preventive test on Phakopsora pachyrhizi (soybeans); conditions: soybean plants, preventive spray, dose 10 ppm, evaluated 7 days after inoculation

Row | Compound | biological efficacy (Septoria tritici) [%] | biological efficacy (Uromyces appendiculatus) [%] | LogP^[a] [1] | biological efficacy (Botrytis cinerea) [%] | biological efficacy (Pyrenophora teres) [%] | biological efficacy (Phakopsora pachyrhizi) [%] | LogP[a] ([1]; HPLC on reversed phase columns)
1 | CCCC1(C)CCCc2c(NC(=O)c3cn(C)nc3C(F)F)cccc21 (stereo not shown) [Example 94] | ≥ 70 | ≥ 80 | 4.08^[a] | – | – | – | –
2 | CC(C)C1CCCc2c(NC(=O)c3cn(C)nc3C(F)F)cccc21 (stereo not shown) [Example 98] | – | – | – | ≥ 90 | ≥ 90 | ≥ 70 | 3.73^[a]
